System: Mouse Experimental Autoimmune Encephalomyelitis (EAE) Model
Assay: Effect on a mouse experimental autoimmune encephalomyelitis (EAE) model
Format: in vivo
Conditions: MBP-immunized mice, oral, once a day from the 5th day to 41st day after the immunization

In the case of C[C@](N)(CO)CCCc1ccc(Sc2cccc(C(F)(F)F)c2)cc1Cl.Cl [compound 27, (R)-2-amino-5-[2-chloro-4-(3-trifluoromethylphenylthio)phenyl]-2-methylpentan-1-ol hydrochloride], the “administration dose showing maximum reaction (onset inhibition)” value is reported as 0.3 mg/kg and the “onset of disease (clinical symptom score, total score)” value (0.01 to 0.3 mg/kg, FIG. 1 and FIG. 2) is reported as “inhibited the onset of disease dose-dependently”.

— patent US20100093745A1, “THERAPEUTIC AGENT OR PROPHYLACTIC AGENT FOR DEMYELINATING DISEASE COMPRISING AMINO ALCOHOL DERIVATIVE AS ACTIVE INGREDIENT” (priority 2007, published 2010)
